In publication PMC9931769, “Bacterial origins of thymidylate metabolism in Asgard archaea and Eukarya” (Nature Communications, 2023) one finds inhibition and Km data, which are given here for three molecules.

For one data set, the target named is T1, Psyn ThyX (Promethearchaeum syntrophicum, UniProt A0A5B9D7C8).
T1 sequence (A0A5B9D7C8 1-298): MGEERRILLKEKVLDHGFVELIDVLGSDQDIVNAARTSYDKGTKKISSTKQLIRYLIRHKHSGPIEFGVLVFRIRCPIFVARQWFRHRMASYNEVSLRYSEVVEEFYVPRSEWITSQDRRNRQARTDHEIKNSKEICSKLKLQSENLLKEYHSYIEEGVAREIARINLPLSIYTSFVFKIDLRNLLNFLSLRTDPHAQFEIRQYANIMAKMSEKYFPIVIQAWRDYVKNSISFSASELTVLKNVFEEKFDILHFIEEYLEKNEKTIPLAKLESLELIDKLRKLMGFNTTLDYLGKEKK
The data set can be described thus: inhibition of NADPH oxidation, absorbance at […] nm. The data set is classed as biochemical.

Substrate in the data set “purified protein”: O=c1ccn([C@H]2C[C@H](O)[C@@H](COP(=O)(O)O)O2)c(=O)[nH]1
As to the kind of experiment: purified protein. It is filed as biochemical, Promethearchaeum syntrophicum. Particulars: 50 mM sodium phosphate pH 8, 300 mM NaCl, 2 mM MgCl2, 50 μM FAD, 750 μM NADPH, 0.4 μM enzyme, 25 °C.

Bounds are passed on as bounds.

Turning to `Nc1nc2c(c(=O)[nH]1)N1CN(c3ccc(C(=O)N[C@@H](CCC(=O)O)C(=O)O)cc3)C[C@H]1CN2` [CH2H4folate], at Psyn ThyX, the inhibition (usually how much of the control response was suppressed) at 200 µM was more than 50%. On the same count and under the same terms, next, `Nc1nc2c(c(=O)[nH]1)N[C@@H](CNc1ccc(C(=O)N[C@@H](CCC(=O)O)C(=O)O)cc1)CN2` [H4folate]: more than 50%.

B1: Psyn ThyX (Promethearchaeum syntrophicum) (protein)
chain: MGEERRILLKEKVLDHGFVELIDVLGSDQDIVNAARTSYDKGTKKISSTKQLIRYLIRHKHSGPIEFGVLVFRIRCPIFVARQWFRHRMASYNEVSLRYSEVVEEFYVPRSEWITSQDRRNRQARTDHEIKNSKEICSKLKLQSENLLKEYHSYIEEGVAREIARINLPLSIYTSFVFKIDLRNLLNFLSLRTDPHAQFEIRQYANIMAKMSEKYFPIVIQAWRDYVKNSISFSASELTVLKNVFEEKFDILHFIEEYLEKNEKTIPLAKLESLELIDKLRKLMGFNTTLDYLGKEKK
B1: the Km – broadly, the concentration of substrate that gives half-maximal velocity – in “purified protein” amounted to 0.235 ± 0.035 µM.
